Source: patent US9938259B2, “Therapeutic compositions and related methods of use” (Agios Pharmaceuticals, Inc., priority 2009, dated 2018)

Legend:
PKM2 [1] = molecular target: T1, PKM2 (Homo sapiens, UniProt P14618); assay: PKM2 Ex-Vivo Assay; assay type: cell-based; set-up: endogenous in cells; host or cells: A549; settings: A549 cells treated with compound 1-4 hrs, pyruvate kinase activity in lysate; read-out: Ex-Vivo_AC50
Protocol: Described herein is a method to measure the activity of PKM2 activators in living cells and tissue. One of ordinary skill in the art would recognize and understand that this method can be adapted to high throughput format, and can accommodate a variety of cell lines and growth conditions.
In the assay, cells are treated with a compound described herein (i.e., a PKM2 activator). This compound is capable of entering the cell and binding to PKM2, inducing an activated conformation. The excess unbound compound is washed away with PBS, and the cells are lysed by snap-freezing on dry ice, followed by addition of a detergent-containing lysis buffer. The lysate, in which activated PKM2 remains intact, is removed and added to a chemical cocktail including the chemicals necessary to measure pyruvate kinase activity, in an assay that is coupled to the LDHa enzyme. The amount of pyruvate kinase activity that is measured is normalized to the total protein content in the lysate, and related to the concentration of PKM2 activator that was added to the cell. This allows an AC50 (concentration at which PKM2 is activated 50%) value to be derived. The total fold-increase in activity over mock-treated cells can also be calculated, and the “maximum level of activation” can be used to distinguish between compounds that fully activate PKM2 and compounds that can only partially activate PKM2.
• Lysis buffer* • 20 mM Tris-HCl (pH 7.5) • 150 mM NaCl • 1 mM Na2EDTA • 1 mM EGTA • 1% Triton • 2.5 mM sodium pyrophosphate • 1 mM beta-glycerophosphate • 1 mM Na3VO4 • 1 μg/ml leupeptin • 1 mM PMSF** * This lysis buffer (without PMSF) is available from Cell Signaling Technology as a 10× stock (#9803) ** 1 mM PMSF is added fresh from a 100 mM stock solution made up in isopropanol. The stock solution can be stored at 4 degrees indefinitely. Pyruvate Kinase Assay Master Mix (Same for PKM2 Activator Assay):
On the first day (day 1) cells are normally cultured in RPMI-1640 (Lonza #[…].) (with 25 mM Hepes, L-glutamine)/10% FBS. The cells are subsequently trypsinized and plated in RPMI-1640 (Lonza, #12-918F) (no phenol red, supplemented with L-glutamine @300 mg/L (Sigma, #G8540))/10% FBS at the following densities in 96 well plates:
100 uL final volume of media per well.
On the second day (Day 2), the cells should be 70-90% confluent. The cells are then treated with a compound described herein dissolved in media at final assay concentrations in a 96-well assay block (500 uL) (Costar, #3956). The final DMSO concentration is 0.1% (0.5 μL into 500 uL). Compound dilutions in DMSO are prepared so that the final DMSO concentration is constant at all compound concentrations. The media for the assay is RPMI-1640 (no phenol red, with L-glutamine @300 mg/L).
The media is then aspirated carefully from the cells using a multi-channel aspirator. 100 μL of media w/compounds is added onto cells with a multichannel pipette. Each compound concentration is then assayed in triplicate (a duplicate assay is also sufficient).
The cells are treated for 1-4 hrs (this time is determined empirically compared to DMSO reference treatment). During the cell treatment, PBS (containing calcium and magnesium) and lysis buffer is cooled on ice.
The cells are lysed and the pyruvate kinase activity is assayed. The remaining media is aspirated and the cells are washed 2× with 100 uL ice-cold PBS. The PBS is removed, and the cell plate frozen on dry ice for 5 minutes. The cells are lysed in 50 μL cold lysis buffer. Cells are subsequently kept on ice for 5 minutes, and then agitated on a plate shaker for 5 minutes (repeat 3×). Remove 10 μL for protein quantitation (or use OD280 on entire plate).
In a fresh plate, 170 uL of pyruvate kinase assay master mix was added to each well (see end for recipe). 10 uL of cell lysate was then transferred into each well. The assay was initiated upon addition of 20 uL of ADP solution. […]
Target sequence in this assay (P14618 2-531 limits assumed): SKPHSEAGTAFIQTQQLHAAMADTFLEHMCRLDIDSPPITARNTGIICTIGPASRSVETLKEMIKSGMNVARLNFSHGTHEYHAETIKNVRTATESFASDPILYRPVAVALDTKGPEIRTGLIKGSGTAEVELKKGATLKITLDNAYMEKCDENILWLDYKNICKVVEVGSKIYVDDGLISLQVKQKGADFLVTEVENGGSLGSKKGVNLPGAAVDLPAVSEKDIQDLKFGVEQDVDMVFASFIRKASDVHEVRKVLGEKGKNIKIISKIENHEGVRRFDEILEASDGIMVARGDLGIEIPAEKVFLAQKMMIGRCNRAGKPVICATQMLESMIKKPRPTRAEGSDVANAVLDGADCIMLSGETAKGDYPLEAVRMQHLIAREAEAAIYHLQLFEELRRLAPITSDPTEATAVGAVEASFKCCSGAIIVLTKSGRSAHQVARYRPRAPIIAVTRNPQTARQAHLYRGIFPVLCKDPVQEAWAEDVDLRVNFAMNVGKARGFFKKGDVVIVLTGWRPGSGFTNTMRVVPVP

PKM2 [2] = molecular target: T1, PKM2; assay: PKM2 Assay; assay type: biochemical; settings: activation of PKM2 enzyme, LDH-coupled, absorbance at 340 nm; read-out: PKM2_AC50
Protocol: • PKM2 stock enzyme solution was diluted in Reaction Buffer • 2 μL of compound was added into each well first, and then 180 μL of the Reaction Mix was added. • Reaction mixture with compound (without ADP) were incubated for 30 minutes at 4° C. • Plates were re-equilibrated to room temperature prior to adding 20 μL ADP to initiate the reaction. • Reaction progress was measured as changes in absorbance at 340 nm wavelength at room temperature (25° C.) • Reaction Mix: PKM2 (50 ng/well), ADP (0.7 mM), PEP (0.15 mM), NADH (180 μM), LDH (2 units) in Reaction Buffer • Reaction Buffer: 100 mM KCl, 50 mM Tris pH 7.5, 5 mM MgCl2, 1 mM DTT, 0.03% BSA.
Target sequence in this assay (P14618 whole entry): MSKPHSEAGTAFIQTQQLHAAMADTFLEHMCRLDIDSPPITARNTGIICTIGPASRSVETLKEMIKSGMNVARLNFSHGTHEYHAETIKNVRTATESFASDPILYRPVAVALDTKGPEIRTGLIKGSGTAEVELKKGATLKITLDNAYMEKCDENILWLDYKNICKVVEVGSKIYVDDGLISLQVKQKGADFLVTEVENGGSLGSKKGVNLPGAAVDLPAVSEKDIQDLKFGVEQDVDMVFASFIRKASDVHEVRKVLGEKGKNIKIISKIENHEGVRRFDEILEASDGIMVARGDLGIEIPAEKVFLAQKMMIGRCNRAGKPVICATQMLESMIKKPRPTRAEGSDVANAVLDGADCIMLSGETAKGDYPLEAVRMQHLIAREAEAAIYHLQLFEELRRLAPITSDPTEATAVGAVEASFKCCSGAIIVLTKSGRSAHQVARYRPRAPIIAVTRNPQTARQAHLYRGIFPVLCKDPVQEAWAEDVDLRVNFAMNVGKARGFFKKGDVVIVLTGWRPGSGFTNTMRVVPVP

| AC50 (PKM2 [1]) [nM] | AC50 (PKM2 [2]) [nM] | SMILES |
| --- | --- | --- |
| ≤ 1000 | 100 to 500 | Cc1cc(NS(=O)(=O)c2cccn2-c2ncccc2Cl)ccc1F [drawing 161] |
| ≤ 1000 | – | O=S(=O)(Nc1ccc(F)c(Cl)c1)c1cncn1-c1ncccn1 [drawing 160] |
| > 1000 | 100 to 500 | CCc1cccc(NS(=O)(=O)c2cccn2-c2ccnc(Cl)n2)c1 |
| > 1000 | < 100 | Cc1cc(C)cc(NS(=O)(=O)c2cccn2-c2nccc(Cl)n2)c1 |
| ≤ 1000 | – | Cc1cc(C)cc(NS(=O)(=O)c2cccn2-c2ncccn2)c1 |
| ≤ 1000 | 100 to 500 | Cc1cc(NS(=O)(=O)c2cncn2-c2ncccn2)ccc1F [drawing 158] |
| > 1000 | < 100 | Cc1cc(C)cc(NS(=O)(=O)c2cccn2-c2ccnc(Cl)n2)c1 |
| ≤ 1000 | 100 to 500 | Cc1cc(C)cc(NS(=O)(=O)c2cccn2-c2ccc(C(F)(F)F)cn2)c1 |
| ≤ 1000 | – | Cc1cc(C)cc(NS(=O)(=O)c2cccn2-c2ncc(C(F)(F)F)cc2Cl)c1 |
| ≤ 1000 | – | Cc1cc(C)cc(NS(=O)(=O)c2cncn2-c2ncc(C(F)(F)F)cc2Cl)c1 |

Continued, compound first:

| SMILES | AC50 (PKM2 [1]) [nM] | AC50 (PKM2 [2]) [nM] |
| --- | --- | --- |
| Cc1cccc(NS(=O)(=O)c2cncn2-c2ncc(C(F)(F)F)cc2Cl)c1 | ≤ 1000 | – |
| O=S(=O)(Nc1ccc(F)c(Cl)c1)c1cncn1-c1ncc(C(F)(F)F)cc1Cl | ≤ 1000 | 100 to 500 |
| O=S(=O)(Nc1ccccc1)c1cccn1-c1ncc(C(F)(F)F)cc1Cl | ≤ 1000 | < 100 |
| O=S(=O)(Nc1ccc2ccccc2c1)c1cncn1-c1ncc(C(F)(F)F)cc1Cl [drawing 128] | ≤ 1000 | < 100 |
| Cc1cc(NS(=O)(=O)c2cncn2-c2ncc(C(F)(F)F)cc2Cl)ccc1Cl | ≤ 1000 | 100 to 500 |
| O=S(=O)(Nc1ccc(Cl)cc1)c1cccn1-c1ncc(C(F)(F)F)cc1Cl | ≤ 1000 | – |
| Cc1cc(C)cc(NS(=O)(=O)c2cnn(-c3ncc(C(F)(F)F)cc3Cl)c2)c1 | ≤ 1000 | < 100 |
| O=S(=O)(Nc1ccc2ccccc2c1)c1cncn1-c1ncc(C(F)(F)F)cc1Cl [drawing 151] | ≤ 1000 | 100 to 500 |
| Cc1cc(NS(=O)(=O)c2cccn2-c2ncc(C(F)(F)F)cc2Cl)ccc1F | ≤ 1000 | – |
| Cc1ccc(NS(=O)(=O)c2cccn2-c2ncc(C(F)(F)F)cc2Cl)cc1C | ≤ 1000 | < 100 |
| O=S(=O)(Nc1cc(F)cc(F)c1)c1cccn1-c1ncc(C(F)(F)F)cc1Cl | ≤ 1000 | < 100 |
| Cc1ccc(NS(=O)(=O)c2cccn2-c2ncc(C(F)(F)F)cc2Cl)cc1 | ≤ 1000 | < 100 |
| O=S(=O)(Nc1ccc(F)c(Cl)c1)c1cccn1-c1ccnc(Cl)n1 | > 1000 | < 100 |
| O=S(=O)(Nc1ccc2c(c1)OCO2)c1cccn1-c1ncccc1Cl | ≤ 1000 | < 100 |
| Cc1cc(NS(=O)(=O)c2cccn2-c2ncc(C(F)(F)F)cc2Cl)ccc1Cl | ≤ 1000 | < 100 |
| Cc1cc(NS(=O)(=O)c2cncn2-c2ncc(C(F)(F)F)cc2Cl)ccc1F | ≤ 1000 | < 100 |
| O=S(=O)(Nc1cccc(Cl)c1)c1cncn1-c1ncc(C(F)(F)F)cc1Cl | ≤ 1000 | 100 to 500 |
| O=S(=O)(Nc1ccc2c(c1)OCO2)c1cccn1-c1ncc(C(F)(F)F)cc1Cl | ≤ 1000 | – |
| O=S(=O)(Nc1ccc(Cl)cc1)c1cccn1-c1ncccc1Cl [drawing 87] | ≤ 1000 | – |
| O=S(=O)(Nc1ccc(Cl)cc1)c1cncn1-c1cnccn1 | ≤ 1000 | 1000 to 10000 |
| O=S(=O)(Nc1cccc(Cl)c1)c1cccn1-c1ncc(C(F)(F)F)cc1Cl | ≤ 1000 | < 100 |
| Cc1ccc(NS(=O)(=O)c2cncn2-c2ncc(C(F)(F)F)cc2Cl)cc1C | ≤ 1000 | < 100 |
